Experiment [1] deals with A2B5+ OPCs. Kind of experiment: OPC differentiation assay. It counts as cell-based, Sprague Dawley rats. Particulars: 72 h; rat OPCs in CNTF/T3 media, 3-day incubation, MSD analysis; read-out: positive in the OPC assay (concentration). Here is the method:
OPC Differentiation Assay
Enriched populations of oligodendrocytes were grown from post-natal day 2 (P2) female Sprague Dawley rats. The forebrain was dissected out and placed in Hank's buffered saline solution (HBSS; Invitrogen, Grand Island, N.Y.). The tissue was cut into 1 mm fragments and incubated at 37° C. for 15 minutes in 0.01% trypsin and 10 μg/mL DNase. Dissociated cells were plated on poly-L-lysine-coated T75 tissue culture flasks and grown at 37° C. for 10 days in Dulbecco's modified Eagle's medium (DMEM) with 20% fetal calf serum (Invitrogen). A2B5^+ OPCs were collected by shaking the flask overnight at 200 rpm and 37° C., resulting in a 95% pure population.
For the differentiation assay, 2 μM and 20 μM antagonist or the same concentrations of vehicle (DMSO) were applied to OPCs cultured in CNTF/T3 containing media. After a 3-day incubation, after a 3-day incubation, cell were lysed and then subjected to MSD (Meso Scale Discovery-R) analysis. EC50 was calculated by Prism using a nonlinear sigmoidal dose-response curve cells. Alternatively, cells were lysed in 80 μL lysis buffer (50 mM HEPES [4-(2-hydroxyethyl)-1-piperazine ethanesulfonic acid], pH 7.5, 150 mM NaCl, 1.5 mM MgCl2, 1 mM ethylene glycol tetraacetic acid [EGTA], 1% Triton X-100 and 10% glycerol) for 30 minutes at 4° C. After centrifugation at 14,000 g for 15 minutes, the supernatants were boiled in Laemmli sample buffer, subjected to 4-20% SDS-PAGE, and analyzed by Western blotting with anti-MBP, anti-myelin-associated glycoprotein (MAG), or anti-beta actin antibodies. The secondary antibodies used were anti-mouse IgG-HRP (horseradish peroxidase) and anti-rabbit IgG-HRP respectively.

Experiment [2] has as its target T1, S1P4 (Homo sapiens, UniProt O95977).
T1 sequence (O95977 1-384): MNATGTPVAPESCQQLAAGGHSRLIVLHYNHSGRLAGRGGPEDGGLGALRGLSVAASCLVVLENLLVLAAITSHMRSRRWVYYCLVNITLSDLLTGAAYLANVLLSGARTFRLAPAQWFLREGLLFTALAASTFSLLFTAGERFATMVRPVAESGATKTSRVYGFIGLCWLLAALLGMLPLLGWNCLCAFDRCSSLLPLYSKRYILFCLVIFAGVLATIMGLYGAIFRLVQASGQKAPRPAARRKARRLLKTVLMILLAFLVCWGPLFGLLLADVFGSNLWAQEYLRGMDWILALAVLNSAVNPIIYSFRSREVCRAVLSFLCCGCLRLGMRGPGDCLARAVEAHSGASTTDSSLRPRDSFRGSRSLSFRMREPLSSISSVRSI
In words: S1P receptor calcium flux assay, agonist format (S1P4). It counts as cell-based. The conditions noted are these: FLIPR TETRA. The source says: (§1) S1P Receptor Activity Assays Agonist percentage activation determinations were obtained by assaying sample compounds and referencing the Emax control for each receptor profiled. Antagonist percentage inhibition determinations were obtained by assaying sample compounds and referencing the control EC80 wells for each receptor profiled. The samples were run using a “Single Addition” assay protocol for the agonist and antagonist assay run. The protocol design was as follows: Compound Preparation Master stock solution: Unless specified otherwise, all sample compounds were diluted in 100% anhydrous DMSO including all serial dilutions. All control wells contained identical solvent final concentrations as did the sample compound wells. Compound plate for assay: The sample compounds were transferred from a master stock solution into a daughter plate that was used in the assay. Each sample compound was diluted into assay buffer (1×HBSS with 20 mM HEPES and 2.5 mM Probenecid) at an appropriate concentration to obtain final concentrations. […] Assay was read for 180 seconds using the FLIPR^TETRA (This assay run added sample compounds and reference agonist to respective wells). […] Once baseline corrections were processed, maximum fluorescence values were exported and data manipulated to calculate percentage activation, percentage inhibition and Z′.

Experiment [3] deals with S1P3 (Homo sapiens, UniProt Q99500). Kind of experiment: S1P receptor calcium flux assay, agonist format (S1P3). It counts as cell-based. The conditions noted are these: FLIPR TETRA.
Excerpt: as §1
For orientation: Calcium assays in cells follow changes in intracellular calcium, usually with a dye or a luminescent sensor.

Each structure is given as a SMILES string.

S1P3, sequence (Q99500 whole entry): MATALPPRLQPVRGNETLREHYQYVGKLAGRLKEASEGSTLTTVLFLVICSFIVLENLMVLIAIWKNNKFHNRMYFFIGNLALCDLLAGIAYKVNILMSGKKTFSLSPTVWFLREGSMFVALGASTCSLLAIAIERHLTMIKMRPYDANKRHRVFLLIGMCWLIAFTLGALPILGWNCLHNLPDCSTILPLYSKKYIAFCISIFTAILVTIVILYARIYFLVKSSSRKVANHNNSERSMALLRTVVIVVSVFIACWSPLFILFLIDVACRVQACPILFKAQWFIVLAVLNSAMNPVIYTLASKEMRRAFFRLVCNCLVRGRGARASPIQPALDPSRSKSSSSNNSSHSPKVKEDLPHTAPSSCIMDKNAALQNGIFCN

With `CC(C)(C)[C@H]1CC[C@H](Oc2cccc(-c3cccc(CNCCC(=O)O)c3)c2)CC1` [Example 4, 3-(((3′-((trans-4-(tert-Butyl)cyclohexyl)oxy)-[1,1′-biphenyl]-3-yl)methyl)amino)propanoic acid], the minimal effective concentration in experiment [1] was in the range of 0.5 to 5 µM.
As for `CC(C)(C)[C@H]1CC[C@H](Oc2ccc(-c3cccc(CNC4CC(C(=O)O)C4)c3)cc2)CC1` (stereo partly drawn) [Example 10, 3-(((4′-((trans-4-(tert-Butyl)cyclohexyl)oxy)-[1,1′-biphenyl]-3-yl)methyl)amino)cyclobutanecarboxylic acid], in experiment [1], the minimal effective concentration lay in the range of 0.5 to 5 µM.
Same read-out and setting: the figure for `CC(C)(C)[C@H]1CC[C@H](Oc2ccc(-c3ccc(CNCCC(=O)O)cc3)cc2)CC1` [Example 24, 3-((4′-(trans-4-tert-Butylcyclohexyloxy)biphenyl-4-yl)methylamino)propanoic acid] is 0.5 to 5 µM.
For the compound `CC(C)(C)[C@H]1CC[C@H](n2nc(-c3cccc(CNCCC(=O)O)c3)ccc2=O)CC1` [Example 48, 3-((3-(1-(trans-4-(tert-butyl)cyclohexyl)-6-oxo-1,6-dihydropyridazin-3-yl)benzyl)amino)propanoic acid], the “S1P4 agonist activity EC50” value in experiment [2] fell in the range of 1 to 5000 nM.
What is called EC50 is the concentration that produces a half-maximal response. As to `CC(C)(C)[C@H]1CC[C@H](Oc2cnc(-c3cccc(CNCCC(=O)O)c3)nc2)CC1` [Example 50, 3-(3-(5-(trans-4-tert-Butylcyclohexyloxy)pyrimidin-2-yl)benzylamino)propanoic acid], the EC50 in experiment [3] was in the range of 50 to 5000 nM.
`CC(C)(C)[C@H]1CC[C@H](Oc2ccc(-c3csc(CNCCC(=O)O)n3)cc2)CC1` [Example 62, 3-(((4-(4-((trans-4-(tert-Butyl)cyclohexyl)oxy)phenyl)thiazol-2-yl)methyl)amino)propanoic acid]: in experiment [1], the minimal effective concentration was 0.5 to 5 µM.
For the compound `CC(C)(C)[C@H]1CC[C@H](Oc2ccc(-n3cc(CN4CCC(C(=O)O)CC4)nn3)cc2)CC1` [Example 93, 1-((1-(4-(trans-4-tert-Butylcyclohexyloxy)phenyl)-1H-1,2,3-triazol-4-yl)methyl)piperidine-4-carboxylic acid], the minimal effective concentration in experiment [1] fell in the range of 0.5 to 5 µM.
Regarding `CC(C)(C)[C@H]1CC[C@H](Oc2ccc(-c3cccc(CNCCC(=O)O)c3F)cc2)CC1` [Example 95], the minimal effective concentration in experiment [1] lay within 0.5 to 5 µM.
For the compound `O=C(O)C1CCN(Cc2cccc(-c3ccc(OC4CCC5(CCC5)CC4)cc3)c2F)C1` (centres unmarked) [Example 106, 1-((2-fluoro-4′-(spiro[3.5]nonan-7-yloxy)-[1,1′-biphenyl]-3-yl)methyl)pyrrolidine-3-carboxylic acid], in experiment [1], the minimal effective concentration lay in the range of 0.5 to 5 µM.
Same read-out and setting: the result for `O=C(O)C1CCN(Cc2cccc(-c3ccc(OC4CCC5(CCCC5)CC4)cc3)c2F)C1` (centres unmarked) [Example 114, 1-((2-fluoro-4′-(spiro[4.5]decan-8-yloxy)-[1,1′-biphenyl]-3-yl)methyl)pyrrolidine-3-carboxylic acid] reads 0.5 to 5 µM.
Regarding `O=C(O)C1CCCN(Cc2cccc(-c3ccc(OC4CCC5(CCCC5)CC4)cc3)c2F)C1` (centres unmarked) [Example 115, 1-((2-fluoro-4′-(spiro[4.5]decan-8-yloxy)-[1,1′-biphenyl]-3-yl)methyl)piperidine-3-carboxylic acid], the minimal effective concentration in experiment [1] lay in the range of 0.5 to 5 µM.
Regarding `CC(C)[C@H]1CC[C@H](Oc2ccc(-c3cccc(CN4CCC(C(=O)O)C4)c3F)cc2)CC1` (some centres unmarked) [Example 138, 1-((2-fluoro-4′-(((1r,4r)-4-isopropylcyclohexyl)oxy)-[1,1′-biphenyl]-3-yl)methyl)pyrrolidine-3-carboxylic acid], the minimal effective concentration in experiment [1] fell in the range of 0.5 to 5 µM.
Consider `CC(C)[C@H]1CC[C@H](Oc2ccc(-c3cccc(CN4CCCC(C(=O)O)C4)c3F)cc2)CC1` (some centres unmarked) [Example 139, 1-((2-fluoro-4′-(((1r,4r)-4-isopropylcyclohexyl)oxy)-[1,1′-biphenyl]-3-yl)methyl)piperidine-3-carboxylic acid], for which, in experiment [1], the minimal effective concentration lay in the range of 0.5 to 5 µM.
As to `CC(C)[C@H]1CC[C@H](Oc2ccc(-c3cccc(CN4CCC(C(=O)O)CC4)c3F)cc2)CC1` [Example 140, 1-((2-fluoro-4′-(((1r,4r)-4-isopropylcyclohexyl)oxy)-[1,1′-biphenyl]-3-yl)methyl)piperidine-4-carboxylic acid], the minimal effective concentration in experiment [1] was 0.5 to 5 µM.
